From patent publication US12152020B2, “Pesticidally active azole-amide compounds” (SYNGENTA PARTICIPATIONS AG, priority 2018, dated 2024)

Tests used:
Format in all cases: in vivo
[1] = test system: Plutella xylostella (Diamond Back Moth); experiment: Example B5: Plutella xylostella, artificial diet in 24-well plates, eggs; conditions: 192 h, application rate of 200 ppm, 8 days after infestation, in comparison to untreated samples, read-out: effect in at least one of the two categories (mortality or growth inhibition)
Procedure: Example B5: Plutella xylostella (Diamond Back Moth)
24-well microtiter plates with artificial diet were treated with aqueous test solutions prepared from 10′000 ppm DMSO stock solutions by pipetting. After drying, Plutella eggs were pipetted through a plastic stencil onto a gel blotting paper and the plate was closed with it. The samples were assessed for mortality and growth inhibition in comparison to untreated samples 8 days after infestation.
The following compounds gave an effect of at least 80% in at least one of the two categories (mortality or growth inhibition) at an application rate of 200 ppm: • P1, P2, P3, P4, P5, P7, P8, P9, P14, P15, P16, P17, P18, P21, P22, P23, P24, P25, P27, P28, P29, P30, P31, P32, P33, P34, P35, P36

[2] = test system: Diabrotica balteata (Corn Root Worm); experiment: Example B1: Diabrotica balteata, maize sprouts sprayed, L2 larvae; conditions: 96 h, application rate of 200 ppm, 4 days after infestation, in comparison to untreated samples, read-out: effect in at least one of the two categories (mortality or growth inhibition)
Procedure: Example B1: Diabrotica balteata (Corn Root Worm)
Maize sprouts placed onto an agar layer in 24-well microtiter plates were treated with aqueous test solutions prepared from 10′000 ppm DMSO stock solutions by spraying. After drying, the plates were infested with L2 larvae (6 to 10 per well). The samples were assessed for mortality and growth inhibition in comparison to untreated samples 4 days after infestation.
The following compounds gave an effect of at least 80% in at least one of the two categories (mortality or growth inhibition) at an application rate of 200 ppm: • P2, P3, P4, P5, P6, P7, P8, P14, P15, P16, P17, P18, P19, P20, P21, P22, P23, P24, P25, P27, P28, P29, P30, P31, P32, P33, P34, P35

[3] = test system: Myzus persicae (Green Peach Aphid); experiment: Example B8: Myzus persicae intrinsic activity, sucrose solution under Parafilm, 24-well; conditions: 120 h, test rate of 12 ppm, 5 days after infestation
From the text: Example B8: Myzus persicae (Green Peach Aphid): Intrinsic Activity
Test compounds prepared from 10′000 ppm DMSO stock solutions were applied by pipette into 24-well microtiter plates and mixed with sucrose solution. The plates were closed with a stretched Parafilm. A plastic stencil with 24 holes was placed onto the plate and infested pea seedlings were placed directly on the Parafilm. The infested plate was closed with a gel blotting paper and another plastic stencil and then turned upside down. The samples were assessed for mortality 5 days after infestation.

[4] = test system: Chilo suppressalis (Striped Rice Stemborer); experiment: Example B4: Chilo suppressalis, artificial diet, L2 larvae; conditions: 144 h, application rate of 200 ppm, 6 days after infestation, in comparison to untreated samples, read-out: control in at least one of the categories (mortality, anti-feedant effect, or growth inhibition)
Procedure: Example B4: Chilo suppressalis (Striped Rice Stemborer)
24-well microtiter plates with artificial diet were treated with aqueous test solutions prepared from 10′000 ppm DMSO stock solutions by pipetting. After drying, the plates were infested with L2 larvae (6-8 per well). The samples were assessed for mortality, anti-feeding effect, and growth inhibition in comparison to untreated samples 6 days after infestation. Control of Chilo suppressalis by a test sample is given when at least one of the categories mortality, anti-feedant effect, and growth inhibition is higher than the untreated sample.

[5] = test system: Spodoptera littoralis (Egyptian Cotton Leaf Worm); experiment: Example B9: Spodoptera littoralis, cotton leaf discs sprayed, L1 larvae; conditions: foliar, 72 h, application rate of 200 ppm, five L1 larvae, 3 days after infestation, in comparison to untreated samples, read-out: control in at least one of the categories (mortality, anti-feedant effect, or growth inhibition)
Procedure: Example B9: Spodoptera littoralis (Egyptian Cotton Leaf Worm)
Cotton leaf discs were placed onto agar in 24-well microtiter plates and sprayed with aqueous test solutions prepared from 10′000 ppm DMSO stock solutions. After drying the leaf discs were infested with five L1 larvae. The samples were assessed for mortality, anti-feeding effect, and growth inhibition in comparison to untreated samples 3 days after infestation. Control of Spodoptera littoralis by a test sample is given when at least one of the categories mortality, anti-feedant effect, and growth inhibition is higher than the untreated sample.

[6] = test system: Plutella xylostella (Diamondback Moth); experiment: Example B14: Plutella xylostella, artificial diet in 96-well plates, eggs; conditions: 216 h, application rate of 500 ppm, 9 days after infestation
Procedure: Example B14: Plutella xylostella (Diamondback Moth)
96-well microtiter plates containing artificial diet were treated with aqueous test solutions, prepared from 10′000 ppm DMSO stock solutions, by a liquid handling robot. After drying, eggs (˜30 per well) were infested onto a netted lid which was suspended above the diet. The eggs hatch and L1 larvae move down to the diet. The samples were assessed for mortality 9 days after infestation.
The following compounds gave an effect of at least 80% average mortality at an application rate of 500 ppm: • P2, P3, P5, P6, P7, P9, P15, P16, P17, P18, P20, P22, P24, P25, P30, P31, P32, P33, P38.

[7] = test system: Myzus persicae (Green Peach Aphid); experiment: Example B13: Myzus persicae, sucrose solution under Parafilm, 96-well; conditions: 120 h, application rate of 50 ppm, 5 days after infestation
From the text: Example B13: Myzus persicae (Green Peach Aphid)
Test compounds prepared from 10′000 ppm DMSO stock solutions were applied by a liquid handling robot into 96-well microtiter plates and mixed with a sucrose solution. Parafilm was stretched over the 96-well microtiter plate and a plastic stencil with 96 holes was placed onto the plate. Aphids were sieved into the wells directly onto the Parafilm. The infested plates were closed with a gel blotting card and a second plastic stencil and then turned upside down. The samples were assessed for mortality 5 days after infestation.

CC(NC(=O)c1cc(C(F)(F)F)cc(C(F)(F)F)c1)c1nc(Cl)nn1-c1ncccn1 (stereo not shown) [Compound P34, N-[1-(5-chloro-2-pyrimidin-2-yl-1,2,4-triazol-3-yl)ethyl]-3,5-bis(trifluoromethyl) benzamide]
≥ 80%: percent effect (mortality or growth inhibition) at 200 ppm [1] | percent effect (mortality or growth inhibition) at 200 ppm [2] | mortality at 12 ppm [3] | percent control (mortality, anti-feedant effect or growth inhibition) at 200 ppm [4] | percent control (mortality, anti-feedant effect or growth inhibition) at 200 ppm [5]

CC(c1nc(Br)nn1-c1ccccn1)N(C)C(=O)c1cc(C(F)(F)F)cc(C(F)(F)F)c1 (stereo not shown) [Compound P24, N-[1-[5-bromo-2-(2-pyridyl)-1,2,4-triazol-3-yl]ethyl]-N-methyl-3,5-bis(trifluoromethyl) benzamide]
≥ 80%: mortality at 500 ppm [6] | percent effect (mortality or growth inhibition) at 200 ppm [1] | percent effect (mortality or growth inhibition) at 200 ppm [2] | percent control (mortality, anti-feedant effect or growth inhibition) at 200 ppm [5]

CC(c1nc(S(=O)(=O)C(F)(F)F)nn1-c1ncccn1)N(C)C(=O)c1cc(C(F)(F)F)cc(C(F)(F)F)c1 (stereo not shown) [Compound P19, N-methyl-N-[1-[2-pyrimidin-2-yl-5-(trifluoromethylsulfonyl)-1,2,4-triazol-3-yl]ethyl]-3,5-bis(trifluoromethyl)benzamide]
≥ 80%: percent effect (mortality or growth inhibition) at 200 ppm [2] | percent control (mortality, anti-feedant effect or growth inhibition) at 200 ppm [4]

CC(NC(=O)c1cc(Br)cc(C(F)(F)F)c1)c1nc(Br)nn1-c1ncccn1 (stereo not shown) [Compound P31, 3-bromo-N-[1-(5-bromo-2-pyrimidin-2-yl-1,2,4-triazol-3-yl)ethyl]-5-(trifluoromethyl) benzamide]
≥ 80%: mortality at 500 ppm [6] | percent effect (mortality or growth inhibition) at 200 ppm [1] | percent effect (mortality or growth inhibition) at 200 ppm [2] | mortality at 12 ppm [3] | percent control (mortality, anti-feedant effect or growth inhibition) at 200 ppm [4] | percent control (mortality, anti-feedant effect or growth inhibition) at 200 ppm [5]

CC(c1nc(C#N)nn1-c1ncccn1)N(C)C(=O)c1cc(C(F)(F)F)cc(C(F)(F)F)c1 (stereo not shown) [Compound P9, N-[1-(5-cyano-2-pyrimidin-2-yl-1,2,4-triazol-3-yl)ethyl]-N-methyl-3,5-bis(trifluoromethyl) benzamide]
≥ 80%: mortality at 500 ppm [6] | percent effect (mortality or growth inhibition) at 200 ppm [1]

C=C(F)c1nc(C(C)N(C)C(=O)c2cc(C(F)(F)F)cc(C(F)(F)F)c2)n(-c2ncccn2)n1 (stereo not shown) [Compound P14, N-[1-[5-(1-fluorovinyl)-2-pyrimidin-2-yl-1,2,4-triazol-3-yl]ethyl]-N-methyl-3,5-bis(trifluoromethyl) benzamide]
≥ 80%: percent effect (mortality or growth inhibition) at 200 ppm [1] | percent effect (mortality or growth inhibition) at 200 ppm [2] | percent control (mortality, anti-feedant effect or growth inhibition) at 200 ppm [4] | mortality at 50 ppm [7]

CC(=O)c1nc(C(C)NC(=O)c2cc(C(F)(F)F)cc(C(F)(F)F)c2)n(-c2ncccn2)n1 (stereo not shown) [Compound P35, N-[1-(5-acetyl-2-pyrimidin-2-yl-1,2,4-triazol-3-yl)ethyl]-3,5-bis(trifluoromethyl) benzamide]
≥ 80%: percent effect (mortality or growth inhibition) at 200 ppm [1] | percent effect (mortality or growth inhibition) at 200 ppm [2] | percent control (mortality, anti-feedant effect or growth inhibition) at 200 ppm [4] | percent control (mortality, anti-feedant effect or growth inhibition) at 200 ppm [5]

CC(NC(=O)c1cc(C(F)(F)F)cc(C(F)(F)F)c1)c1nc(-c2nnco2)nn1-c1ncccn1 (stereo not shown) [Compound P30, N-[1-[5-(1,3,4-oxadiazol-2-yl)-2-pyrimidin-2-yl-1,2,4-triazol-3-yl]ethyl]-3,5-bis(trifluoromethyl)benzamide]
≥ 80%: mortality at 500 ppm [6] | percent effect (mortality or growth inhibition) at 200 ppm [1] | percent effect (mortality or growth inhibition) at 200 ppm [2] | mortality at 12 ppm [3] | percent control (mortality, anti-feedant effect or growth inhibition) at 200 ppm [4] | mortality at 50 ppm [7] | percent control (mortality, anti-feedant effect or growth inhibition) at 200 ppm [5]

CC(c1nc(SC(F)(F)F)nn1-c1ncccn1)N(C)C(=O)c1cc(C(F)(F)F)cc(C(F)(F)F)c1 (stereo not shown) [Compound P20, N-methyl-N-[1-[2-pyrimidin-2-yl-5-(trifluoromethylsulfanyl)-1,2,4-triazol-3-yl]ethyl]-3,5-bis(trifluoromethyl)benzamide]
≥ 80%: mortality at 500 ppm [6] | percent effect (mortality or growth inhibition) at 200 ppm [2] | percent control (mortality, anti-feedant effect or growth inhibition) at 200 ppm [5]

CC(c1nc(-c2ccccc2)nn1-c1ncccn1)N(C)C(=O)c1cc(C(F)(F)F)cc(C(F)(F)F)c1 (stereo not shown) [Compound P6, N-methyl-N-[1-(5-phenyl-2-pyrimidin-2-yl-1,2,4-triazol-3-yl)ethyl]-3,5-bis(trifluoromethyl)benzamide]
≥ 80%: mortality at 500 ppm [6] | percent effect (mortality or growth inhibition) at 200 ppm [2]

CC#Cc1nc(C(C)N(C)C(=O)c2cc(C(F)(F)F)cc(C(F)(F)F)c2)n(-c2ncccn2)n1 (stereo not shown) [Compound P8, N-methyl-N-[1(5-prop-1-ynyl-2-pyrimidin-2-yl-1,2,4-triazol-3-yl)ethyl]-3,5-bis(trifluoromethyl) benzamide]
≥ 80%: percent effect (mortality or growth inhibition) at 200 ppm [1] | percent effect (mortality or growth inhibition) at 200 ppm [2] | percent control (mortality, anti-feedant effect or growth inhibition) at 200 ppm [4]

CC(NC(=O)c1cc(C(F)(F)F)cc(C(F)(F)F)c1)c1nc(OCC(F)(F)F)nn1-c1ncccn1 (stereo not shown) [Compound P27, N-[1-[2-pyrimidin-2-yl-5-(2,2,2-trifluoroethoxy)-1,2,4-triazol-3-yl]ethyl]-3,5-bis(trifluoromethyl) benzamide]
≥ 80%: percent effect (mortality or growth inhibition) at 200 ppm [1] | percent effect (mortality or growth inhibition) at 200 ppm [2] | percent control (mortality, anti-feedant effect or growth inhibition) at 200 ppm [4] | percent control (mortality, anti-feedant effect or growth inhibition) at 200 ppm [5]

C[C@H](NC(=O)c1cc(C(F)(F)F)cc(C(F)(F)F)c1)c1nc(OC(F)(F)F)nn1-c1ncccn1 [Compound P23, N-[(1S)-1-[2-pyrimidin-2-yl-5-(trifluoromethoxy)-1,2,4-triazol-3-yl]ethyl]-3,5-bis(trifluoromethyl)benzamide]
≥ 80%: percent effect (mortality or growth inhibition) at 200 ppm [1] | percent effect (mortality or growth inhibition) at 200 ppm [2] | percent control (mortality, anti-feedant effect or growth inhibition) at 200 ppm [5]
